This passage reports GI50 results from patent US20210355107A1, “MULTI-SUBSTITUTED PYRIDONE DERIVATIVES AND MEDICAL USE THEREOF” (Beijing Yuezhikangtai Biomedicines Co., Ltd., priority 2018, published 2021).

The structures appear in SMILES notation.

The assay has as its target T1, Ba/F3 Axl cells (Homo sapiens, UniProt P30530).
T1 sequence (P30530 1-894): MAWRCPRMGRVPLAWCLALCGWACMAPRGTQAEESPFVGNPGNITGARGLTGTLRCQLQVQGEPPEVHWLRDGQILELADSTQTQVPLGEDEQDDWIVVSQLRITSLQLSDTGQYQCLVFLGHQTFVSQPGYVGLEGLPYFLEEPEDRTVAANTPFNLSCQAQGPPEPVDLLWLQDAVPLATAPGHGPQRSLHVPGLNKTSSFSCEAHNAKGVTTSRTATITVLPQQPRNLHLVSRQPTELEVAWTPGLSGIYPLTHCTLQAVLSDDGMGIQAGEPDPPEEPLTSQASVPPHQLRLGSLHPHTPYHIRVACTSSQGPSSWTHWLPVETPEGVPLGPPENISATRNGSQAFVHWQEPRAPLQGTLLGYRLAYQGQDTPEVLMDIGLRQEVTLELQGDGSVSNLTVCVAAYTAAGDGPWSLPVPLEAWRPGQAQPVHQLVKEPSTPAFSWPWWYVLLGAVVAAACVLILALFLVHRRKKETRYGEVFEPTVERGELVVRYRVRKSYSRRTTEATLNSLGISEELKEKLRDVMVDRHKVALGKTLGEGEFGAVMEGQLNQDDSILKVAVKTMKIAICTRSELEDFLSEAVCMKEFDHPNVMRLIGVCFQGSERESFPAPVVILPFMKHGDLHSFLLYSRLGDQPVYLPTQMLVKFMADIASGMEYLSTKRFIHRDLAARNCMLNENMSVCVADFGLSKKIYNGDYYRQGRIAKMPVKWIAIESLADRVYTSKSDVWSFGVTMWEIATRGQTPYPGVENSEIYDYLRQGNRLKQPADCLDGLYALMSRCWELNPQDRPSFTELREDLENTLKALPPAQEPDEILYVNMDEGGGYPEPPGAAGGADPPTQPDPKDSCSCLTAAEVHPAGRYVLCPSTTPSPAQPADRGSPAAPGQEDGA
The experiment in a line: Ba/F3 Axl cell proliferation, CellTiter-Glo Luminescent Cell Viability Assay. It counts as cell-based. As to conditions: read-out: IC50 (nM) against Ba/F3 Axl cells, 100 ng/mL rhGas6, 72 h incubation. The method, then:
Test method: the inhibitory activity of the compounds against Ba/F3 Axl cell proliferation was evaluated using CellTiter-Glo® Luminescent Cell Viability Assay Kit (Promega).
Test procedures: when thawing Ba/F3 Axl cells, the cell cryopreservation tube was shaken rapidly in a water bath at 37° C. to thaw the cells in 1 min. The cell suspension after thawing was mixed with RPMI1640 culture medium containing 10% FBS and centrifuged for 5 min at 1000 rpm, and the supernatant was discarded. The cell pellet was suspended in 5 mL of complete culture medium. […] Cell passage was performed at a cell density of 2×10^6 viable cells/mL. When the cells were passaged, the original cell suspension was directly made uniform by pipetting. 1/10 (namely 0.5 mL) of the cell suspension was kept, added with 4.5 mL of new complete culture medium and then made uniform by pipetting. The cell culture flask was then placed in a cell incubator for further culturing. Cell plating was performed when the cell confluence reached 2×10^6 viable cells/mL again. With reference to the method for cell passage, 1/10 (namely 0.5 mL) of the cell suspension was kept for further culturing when the cells were plated, and the remaining cell suspension was placed in a 15 mL centrifuge tube. The supernatant was discarded after centrifugation, and 5 mL of complete culture medium was used to resuspend the cells. […] A control group that contains no cell or compound but only complete culture medium and a control group that contains no compound but cells were set. The cell plates were incubated overnight in a cell incubator. […] The cell plates were then incubated in the cell incubator for 72 h. […] The cell plate was left to stand at room temperature for 20 min to stabilize luminescence signals, and the luminescence value of each well was scanned by a Spectramax M3 multi-functional microplate reader (Molecular Devices) at full wavelength.
Test samples: example compounds of the present invention and bemcentinib (positive control compound).
Data analysis: cell viability was calculated for compounds at various concentrations using the following formula:
Cell viability(%)=(Lumtest compound−Lumculture solution control)/(Lumcell control−Lumculture solution control)×100%,
where Lum refers to the luminescence value of each well of the test compound plate read by the multi-functional microplate reader.
The data were analyzed using GraphPad Prism 7.0 software, fitted with nonlinear S-curve regression to give dose-response curves, and IC50 values were calculated therefrom.
In general terms: Cellular ATP, detected with luciferase, serves as a proxy for viable cell number.

Regarding `Nc1nc(Nc2ccc3c(c2)CC[C@@H](N2CCCC2)CC3)nn1-c1cc2c(nn1)-c1ccccc1CCC2` [Bemcentinib, bemcentinib, reference compound], the GI50 is 26.9 nM.
